Target: T1, HIV-Protease (Human immunodeficiency virus type 1 group M subtype B, UniProt P04585)
T1 construct: Gereinigte HIV-Protease wurde mit synthetischem Peptid
Assay: HIV-specific protease enzyme test (purified HIV protease incubated with synthetic Gag cleavage-site peptide, cleavage products analysed by RP-HPLC)
Type: biochemical
Conditions: for inhibition at 240 µg/mL: read-out: % Inhibition bei 240 µg/ml; for IC50: substance concentration causing 50% inhibition of protease activity, read-out: IC₅₀
Excerpt: Darüber hinaus wurde überraschend gefunden, daß die Verbindungen der allgemeinen Formel (I) eine außerordentlich starke Wirkung gegen Retroviren besitzen. Dies wird mit einem HIV-spezifischen Protease-Enzymtest belegt.
Die Ergebnisse der unten aufgeführten Beispiele wurden nach dem in den folgenden Literaturangaben [vgl. Hansen, J., Billich, S., Schulze, T., Sukrow, S. and Mölling, K. (1988), EMBO Journal, Vol, 7, No. 6, pp. 1785 - 1791] beschriebenen HIV-Testsystem ermittelt: Gereinigte HIV-Protease wurde mit synthetischem Peptid, das eine Schnittstelle im Gag-Precursor-Protein imitiert und eine in vivo-Spaltstelle der HIV-Protease darstellt, inkubiert Die entstandenen Spaltprodukte des synthetischen Peptids wurden über Reverse Phase High Performance Liquid Chromatography (RP-HPLC) analysiert. Die angegebenen IC₅₀-Werte beziehen sich auf die Substanzkonzentration, die unter den oben aufgeführten Testbedingungen eine 50%ige Hemmung der Protease-Aktivität bewirkt. Tabelle 1

SMILES | inhibition at 240 µg/mL [%] | IC50 [nM]
Fc1ccc(C(CCCN2CCN(CCOc3cccc4c3CCCC4)CC2)c2ccc(F)cc2)cc1 [Beispiel 26] | 97 | 1000
Cc1cccc(OCCN2CCN(CCCC(c3ccc(F)cc3)c3ccc(F)cc3)CC2)c1C [Beispiel 16] | 59 | –
CC(CN1CCN(CCCC(c2ccc(F)cc2)c2ccc(F)cc2)CC1)Oc1ccc(C(F)(F)F)cc1 (racemic) [Beispiel 40] | 84 | –
Cc1cc(Cl)ccc1OC(C)CN1CCN(CCCC(c2ccc(F)cc2)c2ccc(F)cc2)CC1 (centres unmarked) [Beispiel 39] | 77 | 1000
CC(CN1CCN(CCCC(c2ccc(F)cc2)c2ccc(F)cc2)CC1)Oc1cccc2c1CCCC2 (centres unmarked) [Beispiel 41] | 95 | 2100
COc1cccc2c1OC(CN1CCN(CCCC(c3ccc(F)cc3)c3ccc(F)cc3)C[C@@H]1C)CC2 (some centres unmarked) [Beispiel 44] | 99 | 26000
Cc1cccc(OC(C)CN2CCN(CCCC(c3ccc(F)cc3)c3ccc(F)cc3)CC2)c1C (racemic) [Beispiel 37] | 61 | –
CN(C)c1ccccc1OCCN1CCN(CCCC(c2ccc(F)cc2)c2ccc(F)cc2)CC1 [Beispiel 3, 1-[4,4-Bis-(4-fluorphenyl)butyl]-4-[2-(2-N,N-dimethylaminophenoxy)ethyl]piperazin] | 76 | –
Fc1ccc(C(CCCN2CCN(CCOc3ccc(F)cc3F)CC2)c2ccc(F)cc2)cc1 [Beispiel 15] | 92 | 400
CCN(C)c1cc(CO)ccc1OCCN1CCN(CCCC(c2ccc(F)cc2)c2ccc(F)cc2)CC1 [Beispiel 34] | 99 | 170
C[C@H]1CN(CCOc2ccc(F)cc2F)CCN1CCCC(c1ccc(F)cc1)c1ccc(F)cc1 [Beispiel 13, (S)-1-[4,4-Bis-(4-fluorphenyl)butyl]-2-methyl-4-[2-(2,4-difluorphenoxy)ethyl]piperazin] | 91 | 480
Cc1cc(Cl)ccc1OCCN1CCN(CCCC(c2ccc(F)cc2)c2ccc(F)cc2)CC1 [Beispiel 17] | 86 | 500
C[C@H]1CN(CCCC(c2ccc(F)cc2)c2ccc(F)cc2)CCN1CCOc1ccc(F)cc1F [Beispiel 14, (S)-4-[4,4-Bis-(4-fluorphenyl)butyl]-2-methyl-1-[2-(2,4-difluorphenoxy)ethyl]piperazin] | 99 | 1100
CC(CN1CCN(CCCC(c2ccc(F)cc2)c2ccc(F)cc2)CC1)Oc1ccc(F)cc1F (racemic) [Beispiel 10, 1-[4,4-Bis-(4-fluorphenyl)butyl]-4-[(R/S)-2-(2,4-difluorphenoxy)propyl]piperazin] | 77 | 4800
COc1cccc2c1OC(CN1CCN(CCCC(c3ccc(F)cc3)c3ccc(F)cc3)CC1)CC2 (centres unmarked) [Beispiel 27] | 78 | –
Cc1ccc(N)cc1OCCN1CCN(CCCC(c2ccc(F)cc2)c2ccc(F)cc2)CC1 [Beispiel 32] | 67 | –
COC(=O)c1ccc(OCCN2CCN(CCCC(c3ccc(F)cc3)c3ccc(F)cc3)CC2)c(N(C)C(C)=O)c1 [Beispiel 33] | 56 | –
Cc1ccc(N(C)C)cc1OCCN1CCN(CCCC(c2ccc(F)cc2)c2ccc(F)cc2)CC1 [Beispiel 30] | 81 | –
COc1cc(C)ccc1OCCN1CCN(CCCC(c2ccc(F)cc2)c2ccc(F)cc2)CC1 [Beispiel 22] | 81 | –
